{
  "source": "patent US10966426B2",
  "about": "“Herbicidal compositions comprising phenylpyrimidines” (BASF SE, priority 2016, dated 2021)",
  "format_in_all_cases": "in vivo",
  "key": {"[1]": {"tested_on": "Ambrosia elatior", "assay": "greenhouse pre-emergence treatment, AMBEL", "settings": "AMBEL", "summary_of_the_method": "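Pre-emergence spray of compounds, alone or as combinations formulated as 10% emulsion concentrate in water, directly after sowing in loamy sand (~3.0% humus); pots hooded until rooting, kept at 10-25° C or 20-35° C per species for 2 to 4 weeks. Damage scored 0-100 (100 = no emergence/complete destruction); Colby expected value E=X+Y−(X·Y/100).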"}, "[2]": {"tested_on": "Poa annua", "assay": "greenhouse post-emergence treatment, POAAN", "settings": "POAAN", "summary_of_the_method": "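Foliar application to greenhouse-grown plants 3–15 cm tall in humus-containing loamy sand; response assessed on a 0–100 scale after 2–4 weeks, with Colby's E=X+Y−(X·Y/100) as the additive expectation.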"}, "[3]": {"tested_on": "Alopecurus myosuroides", "assay": "greenhouse post-emergence treatment, ALOMY", "settings": "ALOMY", "summary_of_the_method": "(§1)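 Pot trial in loamy sand with about 3.0% humus; plants sown in place or transplanted as seedlings a few days before treatment, kept at 10-25° C or 20-35° C by species, water as solvent. Damage scored 0 (none) to 100 (full destruction) over 2 to 4 weeks; combination expectation by Colby, E=X+Y−(X·Y/100).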"}, "[4]": {"tested_on": "Papaver rhoeas", "assay": "greenhouse post-emergence treatment, PAPRH", "settings": "PAPRH", "summary_of_the_method": "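Visual herbicidal effect (0–100) recorded over a 2 to 4 week test period after foliar treatment at plant heights of 3 to 15 cm. Expected combination effects derived by the Colby formula from single-component effects X and Y.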"}, "[5]": {"tested_on": "Lolium multiflorum", "assay": "greenhouse post-emergence treatment, LOLMU", "settings": "LOLMU", "summary_of_the_method": "as §1"}, "[6]": {"settings": "Ex. 5 solo, 62.5 gai/ha, 20 DAT"}, "[7]": {"settings": "solo Ex. 5 15 gai/ha, 20 DAT, 2nd series of rows"}, "[8]": {"settings": "solo Ex. 5 62.5 gai/ha, 20 DAT, 2nd series of rows"}, "[9]": {"settings": "solo Ex. 5 250 gai/ha, 20 DAT, 2nd series of rows"}},
  "note": "Values joined by “and” are separate entries in the source; they are usually repeats but may differ in a detail not shown here. Identical values can stand only once.",
  "data": [
    {"smiles": "O=C(O)c1nc(C2CC2)ncc1-c1ccccc1Cl", "note": "[Ex. 5]", "values": [
      {"measurement": "% activity, solo application", "setting": "[1]; 31.25 gai/ha, 20 DAT, Table X1", "value": 30, "unit": "%"},
      {"measurement": "% activity, solo application", "setting": "[1]; 62.5 gai/ha, 20 DAT, Table X1", "value": 45, "unit": "%"},
      {"measurement": "% activity, solo application", "setting": "[1]; 62.5 gai/ha, 20 DAT, Table X2", "value": 0, "unit": "%"},
      {"measurement": "% activity, solo application", "setting": "[1]; 62.5 gai/ha, 20 DAT, Table X6", "value": 0, "unit": "%"},
      {"measurement": "% activity, solo application", "setting": "[1]; 250 gai/ha, 20 DAT, Table X1", "value": 98, "unit": "%"},
      {"measurement": "% activity", "setting": "[1]; 20 DAT, solo Ex. 5 31.25 gai/ha", "value": 10, "unit": "%"},
      {"measurement": "% activity", "setting": "[1]; 20 DAT, solo Ex. 5 31.25 gai/ha (Table X70)", "value": 20, "unit": "%"},
      {"measurement": "% activity", "setting": "[1]; 20 DAT, solo Ex. 5 62.5 gai/ha", "value": 70, "unit": "%"},
      {"measurement": "% activity", "setting": "[1]; 20 DAT, solo Ex. 5 125 gai/ha", "value": 85, "unit": "%"},
      {"measurement": "% activity", "setting": "[1]; [6]", "value": 70, "unit": "%"},
      {"measurement": "% activity", "setting": "[1]; Table X10, 20 DAT, solo Ex. 5 31.25 gai/ha", "value": 30, "unit": "%"},
      {"measurement": "% activity", "setting": "[1]; Table X10, 20 DAT, solo Ex. 5 62.5 gai/ha", "value": 45, "unit": "%"},
      {"measurement": "% activity", "setting": "[1]; Table X11, 20 DAT, solo Ex. 5 62.5 gai/ha", "value": 45, "unit": "%"},
      {"measurement": "% activity", "setting": "[1]; solo, 62.5 gai/ha, 20 DAT", "value": 70, "unit": "%"},
      {"measurement": "% activity", "setting": "[1]; solo, 125 gai/ha, 21 DAT", "value": 70, "unit": "%"},
      {"measurement": "% activity", "setting": "[2]; solo Ex. 5 62.5 gai/ha, 20 DAT", "value": 80, "unit": "%"},
      {"measurement": "% activity", "setting": "[2]; solo Ex. 5 125 gai/ha, 20 DAT", "value": 80, "unit": "%"},
      {"measurement": "% activity", "setting": "[2]; solo Ex. 5 125 gai/ha, 21 DAT", "value": 85, "unit": "%"},
      {"measurement": "% activity", "setting": "[2]; solo Ex. 5 250 gai/ha, 21 DAT", "value": 85, "unit": "%"},
      {"measurement": "% activity", "setting": "[2]; Table X8, 20 DAT, solo Ex. 5 125 gai/ha", "value": 90, "unit": "%"},
      {"measurement": "% activity", "setting": "[2]; Table X8, 20 DAT, solo Ex. 5 250 gai/ha", "value": 90, "unit": "%"},
      {"measurement": "% activity", "setting": "[2]; solo, 62.5 gai/ha, 20 DAT", "value": 85, "unit": "%"},
      {"measurement": "% activity", "setting": "[2]; solo, 125 gai/ha, 20 DAT", "value": 85, "unit": "%"},
      {"measurement": "% activity", "setting": "[2]; solo, 250 gai/ha, 20 DAT", "value": 85, "unit": "%"},
      {"measurement": "% activity, solo application", "setting": "[3]; 62.5 gai/ha, 20 DAT, Table X3", "value": 75, "unit": "%"},
      {"measurement": "% activity, solo application", "setting": "[3]; 125 gai/ha, 20 DAT, Table X7", "value": 80, "unit": "%"},
      {"measurement": "% activity, solo application", "setting": "[3]; 250 gai/ha, 20 DAT, Table X5", "value": 85, "unit": "%"},
      {"measurement": "% activity, solo application", "setting": "[3]; 250 gai/ha, 20 DAT, Table X7", "value": 75, "unit": "%"},
      {"measurement": "% activity", "setting": "[3]; [7]", "value": 80, "unit": "%"},
      {"measurement": "% activity", "setting": "[3]; solo Ex. 5 62.5 gai/ha, 20 DAT", "value": "70% and 68%"},
      {"measurement": "% activity", "setting": "[3]; [8]", "value": 70, "unit": "%"},
      {"measurement": "% activity", "setting": "[3]; solo Ex. 5 125 gai/ha, 20 DAT", "value": 70, "unit": "%"},
      {"measurement": "% activity", "setting": "[3]; solo Ex. 5 250 gai/ha, 20 DAT", "value": 73, "unit": "%"},
      {"measurement": "% activity", "setting": "[3]; [9]", "value": 80, "unit": "%"},
      {"measurement": "% activity", "setting": "[3]; solo Ex. 5 250 gai/ha, 21 DAT", "value": 80, "unit": "%"},
      {"measurement": "% activity", "setting": "[3]; solo Ex. 5 500 gai/ha, 20 DAT", "value": 78, "unit": "%"},
      {"measurement": "% activity", "setting": "[3]; solo Ex. 5 500 gai/ha, 20 DAT, 2nd series of rows", "value": 80, "unit": "%"},
      {"measurement": "% activity", "setting": "[3]; Table X12, 20 DAT, solo Ex. 5 31.25 gai/ha", "value": 70, "unit": "%"},
      {"measurement": "% activity", "setting": "[3]; Table X12, 20 DAT, solo Ex. 5 62.5 gai/ha", "value": 70, "unit": "%"},
      {"measurement": "% activity", "setting": "[3]; Table X12, 20 DAT, solo Ex. 5 125 gai/ha", "value": 80, "unit": "%"},
      {"measurement": "% activity", "setting": "[3]; solo, 62.5 gai/ha, 20 DAT", "value": 75, "unit": "%"},
      {"measurement": "% activity", "setting": "[3]; solo, 125 gai/ha, 20 DAT", "value": "80% and 75%"},
      {"measurement": "% activity", "setting": "[3]; solo, 250 gai/ha, 20 DAT", "value": 80, "unit": "%"},
      {"measurement": "% activity, solo application", "setting": "[4]; 62.5 gai/ha, 20 DAT, Table X3", "value": 20, "unit": "%"},
      {"measurement": "% activity, solo application", "setting": "[4]; 125 gai/ha, 20 DAT, Table X3", "value": 75, "unit": "%"},
      {"measurement": "% activity, solo application", "setting": "[4]; 125 gai/ha, 20 DAT, Table X4", "value": 5, "unit": "%"},
      {"measurement": "% activity, solo application", "setting": "[4]; 125 gai/ha, 20 DAT, Table X5", "value": 30, "unit": "%"},
      {"measurement": "% activity", "setting": "[4]; [6]", "value": 25, "unit": "%"},
      {"measurement": "% activity", "setting": "[4]; Ex. 5 solo, 62.5 gai/ha, 21 DAT", "value": 60, "unit": "%"},
      {"measurement": "% activity", "setting": "[4]; 20 DAT, solo Ex. 5 62.5 gai/ha", "value": 70, "unit": "%"},
      {"measurement": "% activity", "setting": "[4]; 20 DAT, solo Ex. 5 125 gai/ha", "value": 65, "unit": "%"},
      {"measurement": "% activity", "setting": "[4]; 20 DAT, solo Ex. 5 125 gai/ha (Table X66)", "value": 65, "unit": "%"},
      {"measurement": "% activity", "setting": "[4]; 21 DAT, solo Ex. 5 125 gai/ha", "value": 60, "unit": "%"},
      {"measurement": "% activity", "setting": "[4]; 21 DAT, solo Ex. 5 250 gai/ha", "value": 80, "unit": "%"},
      {"measurement": "% activity", "setting": "[4]; solo Ex. 5 62.5 gai/ha, 20 DAT", "value": 0, "unit": "%"},
      {"measurement": "% activity", "setting": "[4]; solo Ex. 5 62.5 gai/ha, 21 DAT", "value": 0, "unit": "%"},
      {"measurement": "% activity", "setting": "[4]; solo Ex. 5 125 gai/ha, 21 DAT", "value": 10, "unit": "%"},
      {"measurement": "% activity", "setting": "[4]; solo Ex. 5 250 gai/ha, 20 DAT", "value": 65, "unit": "%"},
      {"measurement": "% activity", "setting": "[4]; solo Ex. 5 250 gai/ha, 21 DAT", "value": 65, "unit": "%"},
      {"measurement": "% activity", "setting": "[4]; solo, 250 gai/ha, 20 DAT", "value": "70% and 75%"},
      {"measurement": "% activity, solo application", "setting": "[5]; 125 gai/ha, 20 DAT, Table X4", "value": 80, "unit": "%"},
      {"measurement": "% activity, solo application", "setting": "[5]; 125 gai/ha, 20 DAT, Table X5", "value": 80, "unit": "%"},
      {"measurement": "% activity, solo application", "setting": "[5]; 250 gai/ha, 20 DAT, Table X4", "value": 80, "unit": "%"},
      {"measurement": "% activity", "setting": "[5]; 21 DAT, solo Ex. 5 125 gai/ha", "value": 85, "unit": "%"},
      {"measurement": "% activity", "setting": "[5]; 21 DAT, solo Ex. 5 250 gai/ha", "value": 85, "unit": "%"},
      {"measurement": "% activity", "setting": "[5]; [7]", "value": 85, "unit": "%"},
      {"measurement": "% activity", "setting": "[5]; solo Ex. 5 62.5 gai/ha, 20 DAT", "value": 80, "unit": "%"},
      {"measurement": "% activity", "setting": "[5]; [8]", "value": 80, "unit": "%"},
      {"measurement": "% activity", "setting": "[5]; solo Ex. 5 125 gai/ha, 20 DAT", "value": "80% and 83%"},
      {"measurement": "% activity", "setting": "[5]; solo Ex. 5 250 gai/ha, 20 DAT", "value": 85, "unit": "%"},
      {"measurement": "% activity", "setting": "[5]; [9]", "value": 85, "unit": "%"}
    ]}
  ]
}
